Experimental data taken from patent publication US11312695B2, “Nutrients to enhance load-induced muscle hypertrophy” (The Regents of the University of California, priority 2020, dated 2022).

Molecular target: T1, purified human SIRT1 (Homo sapiens, UniProt Q96EB6)
T1 sequence (Q96EB6 1-747): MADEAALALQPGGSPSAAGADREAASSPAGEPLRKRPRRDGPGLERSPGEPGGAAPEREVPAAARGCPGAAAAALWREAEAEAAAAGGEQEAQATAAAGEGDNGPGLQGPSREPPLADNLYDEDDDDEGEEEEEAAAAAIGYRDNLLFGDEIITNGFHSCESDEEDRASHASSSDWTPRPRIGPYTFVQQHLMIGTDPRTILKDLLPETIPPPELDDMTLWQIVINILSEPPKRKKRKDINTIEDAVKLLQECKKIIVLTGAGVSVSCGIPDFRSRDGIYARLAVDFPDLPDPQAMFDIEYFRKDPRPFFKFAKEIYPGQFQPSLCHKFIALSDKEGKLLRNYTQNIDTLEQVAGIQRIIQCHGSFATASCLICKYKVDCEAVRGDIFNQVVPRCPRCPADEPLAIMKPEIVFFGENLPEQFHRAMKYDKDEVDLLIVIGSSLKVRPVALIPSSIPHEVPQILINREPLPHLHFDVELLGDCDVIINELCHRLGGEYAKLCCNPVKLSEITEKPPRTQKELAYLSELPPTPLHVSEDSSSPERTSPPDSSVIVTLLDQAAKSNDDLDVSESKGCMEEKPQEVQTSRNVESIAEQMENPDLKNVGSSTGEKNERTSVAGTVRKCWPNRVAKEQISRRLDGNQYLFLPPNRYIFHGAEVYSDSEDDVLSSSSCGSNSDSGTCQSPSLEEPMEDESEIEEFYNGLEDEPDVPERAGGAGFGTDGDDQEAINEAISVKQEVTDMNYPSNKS
Assay: SIRT1 inhibitor screen (mobility shift assay, p53 substrate)
Assay type: biochemical
Conditions: 2 ng/μl SIRT1, 3 μM p53 substrate; for inhibition at 5 µM / percent inhibition of SIRT1 at 5 μM: 5 μM compound; for inhibition at 5 µM: read-out: percent inhibition of SIRT1 at 5 μM; for inhibition at 50 µM / percent inhibition of SIRT1 at 50 μM: 50 μM compound; for inhibition at 50 µM: read-out: percent inhibition of SIRT1 at 50 μM
Experimental: The NatProd Collection library (MicroSource Discovery Systems, Inc. Gaylordsville, Conn.) in ten source plates was screened at two doses (50 μM and 5 μM final in the reaction mixture, duplicate for each dose). The inhibitory activity of the compounds was assessed against 2 ng/μ1 purified human SIRT1 using 3 μM p53 as a substrate. The assay was a mobility shift assay based on charge differences before and after electrophoretic separation of product from fluorescently labeled substrate read using a Caliper EZ Reader (Perkin Elmer, Boston, Mass.). All reactions took place in the presence of excess nicotinamide adenine dinucleotide and the known SIRT1 inhibitor suramin was used as a control.

Row | Structure (SMILES) | inhibition at 5 µM | inhibition at 50 µM | percent inhibition of SIRT1 at 5 μM | percent inhibition of SIRT1 at 50 μM
1 | CC1=C(O)C(=O)C=C2C1=CC=C1[C@@]2(C)CC[C@@]2(C)[C@@H]3C[C@](C)(C(=O)O)CC[C@]3(C)CC[C@]12C [Celastrol] | 101% | 100% |  | 
2 | O=C(O[C@@H]1Cc2c(O)cc(O)cc2O[C@@H]1c1cc(O)c(O)c(O)c1)c1cc(O)c(O)c(O)c1 [Epigallocatechin-3-monogallate] |  |  | 72 | 99
3 | O=C(O[C@@H]1Cc2c(O)cc(O)cc2O[C@@H]1c1ccc(O)c(O)c1)c1cc(O)c(O)c(O)c1 [Epicatechin monogallate] |  |  | 66 | 99
4 | Cc1c(O)c(O)cc2c1CC=C1[C@@]2(C)CC[C@@]2(C)[C@@H]3C[C@](C)(C(=O)O)CC[C@]3(C)CC[C@]12C [Dihydrocelastrol] | 84% | 99% |  | 
